Test results: PMC5603227 (ChemMedChem, 2017)
pIC50: −log10 of the molar value. ≈ marks a conversion by molar mass, not a printed value. Where “and” joins values, the source holds several entries; their conditions need not be identical. Identical values can stand only once. Like-named read-outs stand apart in the source and are kept apart here.

Experiments:
HepG2 cells = test: cells; format: cell-based, human
[1] = tested on: Mtb H37Rv in infected THP-1 cells; test: Intracellular activity in infected THP-1 cells; format: cell-based; details: Mycobacterium tuberculosis, read-out: MIC against intracellular Mtb
[2] = tested on: Mycobacterium tuberculosis H37Rv; test: Microplate alamar blue assay; format: cell-based
Mycobacterium avium = test: MIC against non-tuberculous mycobacteria; format: cell-based; details: read-out: MIC M. avium
[3] = tested on: THP-1 human monocytic cell line; test: THP-1 cytotoxicity; details: macrophage cytotoxicity relative to intracellular MIC
CYP2C8 = CYP2C8 (Homo sapiens, UniProt P10632); test: biochemical
CYP2C8, sequence (P10632 whole entry): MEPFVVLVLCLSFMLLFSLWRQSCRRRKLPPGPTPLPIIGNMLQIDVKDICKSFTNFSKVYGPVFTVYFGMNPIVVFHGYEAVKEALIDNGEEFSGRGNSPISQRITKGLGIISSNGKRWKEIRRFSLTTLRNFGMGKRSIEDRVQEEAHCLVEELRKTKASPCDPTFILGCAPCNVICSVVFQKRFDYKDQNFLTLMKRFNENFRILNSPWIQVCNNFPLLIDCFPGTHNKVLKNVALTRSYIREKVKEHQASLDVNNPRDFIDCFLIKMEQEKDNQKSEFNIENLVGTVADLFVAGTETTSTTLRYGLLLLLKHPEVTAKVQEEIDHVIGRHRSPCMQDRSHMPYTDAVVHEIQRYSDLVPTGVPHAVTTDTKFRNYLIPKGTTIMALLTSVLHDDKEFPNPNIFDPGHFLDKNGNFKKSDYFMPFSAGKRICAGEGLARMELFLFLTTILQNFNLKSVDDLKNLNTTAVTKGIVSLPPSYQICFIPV

in vitro [4] = details: plasma
in vitro [5] = details: human; for Papp A→B at 1 h / Papp A→B at 2 h / Papp B→A at 1 h / Papp B→A at 2 h: Caco-2; for efflux ratio: Caco-2, Caco-2 Efflux Ratio (average)
CYP2D6 = CYP2D6 (Homo sapiens, UniProt P10635); test: biochemical
CYP2D6, sequence (P10635 whole entry): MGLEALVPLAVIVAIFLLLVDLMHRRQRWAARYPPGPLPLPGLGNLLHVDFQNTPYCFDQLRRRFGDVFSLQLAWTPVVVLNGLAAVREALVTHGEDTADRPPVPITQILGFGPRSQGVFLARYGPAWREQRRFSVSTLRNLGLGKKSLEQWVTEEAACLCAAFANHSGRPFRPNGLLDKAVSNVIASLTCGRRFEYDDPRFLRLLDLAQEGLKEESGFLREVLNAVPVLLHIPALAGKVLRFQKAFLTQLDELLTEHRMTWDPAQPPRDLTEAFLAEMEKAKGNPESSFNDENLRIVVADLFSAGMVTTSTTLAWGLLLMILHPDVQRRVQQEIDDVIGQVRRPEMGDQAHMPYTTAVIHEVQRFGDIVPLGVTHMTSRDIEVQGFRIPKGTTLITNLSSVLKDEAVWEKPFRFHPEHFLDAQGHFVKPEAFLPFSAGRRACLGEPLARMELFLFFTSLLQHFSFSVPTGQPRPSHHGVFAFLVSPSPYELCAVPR

in vitro [6] = details: human; for microsomal CLint: s9; for half-life: s9, Human liver S9 Microsomes T ½
CYP2B6 = CYP2B6 (Homo sapiens, UniProt P20813); test: biochemical
CYP2B6, sequence (P20813 whole entry): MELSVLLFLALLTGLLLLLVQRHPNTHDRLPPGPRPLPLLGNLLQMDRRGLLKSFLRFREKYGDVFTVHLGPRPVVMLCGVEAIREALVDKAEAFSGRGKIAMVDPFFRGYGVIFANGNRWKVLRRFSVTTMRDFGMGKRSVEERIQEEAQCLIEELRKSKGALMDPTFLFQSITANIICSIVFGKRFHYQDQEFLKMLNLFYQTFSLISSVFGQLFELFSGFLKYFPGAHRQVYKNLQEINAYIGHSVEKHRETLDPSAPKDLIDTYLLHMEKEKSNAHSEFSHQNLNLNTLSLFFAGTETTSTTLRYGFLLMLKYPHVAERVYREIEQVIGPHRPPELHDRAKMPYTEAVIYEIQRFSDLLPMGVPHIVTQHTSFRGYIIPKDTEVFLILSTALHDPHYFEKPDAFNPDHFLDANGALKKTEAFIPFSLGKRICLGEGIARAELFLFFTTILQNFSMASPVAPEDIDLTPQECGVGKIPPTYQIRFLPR

Caco-2 cell monolayer = details: human
CYP3A4 = CYP3A4 (Homo sapiens, UniProt P08684); test: biochemical; details: Cytochrome P450 Inhibition IC50 CYP3A4
CYP3A4, sequence (P08684 whole entry): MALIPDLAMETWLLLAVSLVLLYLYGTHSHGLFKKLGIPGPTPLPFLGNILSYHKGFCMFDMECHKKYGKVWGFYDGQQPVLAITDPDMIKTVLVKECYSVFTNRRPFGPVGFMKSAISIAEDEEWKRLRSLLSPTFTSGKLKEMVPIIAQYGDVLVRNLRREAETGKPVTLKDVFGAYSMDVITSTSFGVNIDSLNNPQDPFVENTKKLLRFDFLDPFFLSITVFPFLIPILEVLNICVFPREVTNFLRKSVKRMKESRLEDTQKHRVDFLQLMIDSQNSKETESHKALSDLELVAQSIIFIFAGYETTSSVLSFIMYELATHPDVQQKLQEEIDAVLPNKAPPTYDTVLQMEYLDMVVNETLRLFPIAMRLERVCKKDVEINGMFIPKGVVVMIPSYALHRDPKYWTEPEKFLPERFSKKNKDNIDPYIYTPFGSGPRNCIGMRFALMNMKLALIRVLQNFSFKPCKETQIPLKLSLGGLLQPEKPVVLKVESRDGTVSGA

CYP2C9 = CYP2C9 (Homo sapiens, UniProt P11712); test: biochemical
CYP2C9, sequence (P11712 whole entry): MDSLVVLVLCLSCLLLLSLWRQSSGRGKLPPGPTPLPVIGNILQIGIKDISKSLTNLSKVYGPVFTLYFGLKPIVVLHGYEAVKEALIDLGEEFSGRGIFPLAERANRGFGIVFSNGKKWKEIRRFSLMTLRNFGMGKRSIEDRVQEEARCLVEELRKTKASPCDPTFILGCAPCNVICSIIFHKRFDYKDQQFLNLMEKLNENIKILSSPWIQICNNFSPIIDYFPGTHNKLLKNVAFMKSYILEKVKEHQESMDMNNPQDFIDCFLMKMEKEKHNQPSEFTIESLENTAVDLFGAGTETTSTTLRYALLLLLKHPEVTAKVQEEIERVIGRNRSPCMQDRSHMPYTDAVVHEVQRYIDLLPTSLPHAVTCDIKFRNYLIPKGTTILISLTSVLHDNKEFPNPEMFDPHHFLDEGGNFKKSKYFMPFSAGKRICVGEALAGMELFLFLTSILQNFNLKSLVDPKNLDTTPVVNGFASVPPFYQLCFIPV

CYP2C19 = CYP2C19 (Homo sapiens, UniProt P33261); test: biochemical
CYP2C19, sequence (P33261 whole entry): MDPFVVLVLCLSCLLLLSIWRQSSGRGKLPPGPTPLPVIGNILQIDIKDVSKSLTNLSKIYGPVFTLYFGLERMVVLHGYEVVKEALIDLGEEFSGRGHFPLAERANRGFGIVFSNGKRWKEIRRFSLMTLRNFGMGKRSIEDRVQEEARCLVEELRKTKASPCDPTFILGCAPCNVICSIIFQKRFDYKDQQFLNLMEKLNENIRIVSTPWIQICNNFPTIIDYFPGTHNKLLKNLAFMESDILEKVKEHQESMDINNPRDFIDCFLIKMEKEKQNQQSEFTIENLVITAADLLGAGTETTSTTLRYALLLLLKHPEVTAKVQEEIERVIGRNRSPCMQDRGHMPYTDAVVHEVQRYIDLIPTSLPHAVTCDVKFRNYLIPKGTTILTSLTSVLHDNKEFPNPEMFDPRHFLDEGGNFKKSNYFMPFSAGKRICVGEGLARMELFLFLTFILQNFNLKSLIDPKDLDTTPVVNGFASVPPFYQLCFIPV

[7] = Relative aqueous solubility by turbidity in 7H9/ADC/Tween medium; details: 200 μM highest concentration tested
[8] = Homo sapiens, HepG2, read-out: IC50 HepG2 Gal, galactose medium
[9] = Homo sapiens, HepG2, read-out: IC50 HepG2 Glu, glucose medium

Structure (SMILES): Cc1ccn2c(C(=O)NCc3ccc(S(F)(F)(F)(F)F)cc3)c(C)nc2c1 [Compound 13, 2,7-Dimethyl-N-(4-(pentafluoro-λ^6-sulfanyl)benzyl)imidazo[1,2-a]pyridine-3-carboxamide]
- pIC50 (HepG2 cells; [8]): < 4.60
- pIC50 (HepG2 cells; [9]): < 4.60
- MIC [1]: < 0.01 µM
- MIC [2]: < 0.1 µM

Structure (SMILES): Cc1ccn2c(C(=O)NCc3cccc(S(F)(F)(F)(F)F)c3)c(C)nc2c1 [Compound 14, 2,7-Dimethyl-N-(3-(pentafluoro-λ^6-sulfanyl)benzyl)imidazo[1,2-a]pyridine-3-carboxamide]
- pIC50 (HepG2 cells; [8]): < 4.60
- pIC50 (HepG2 cells; [9]): < 4.60
- MIC (Mycobacterium avium): 200 µM (≈ 81.1 µg/mL)

Structure (SMILES): Cc1ccc2nc(C)c(C(=O)NCc3ccc(S(F)(F)(F)(F)F)cc3)n2c1 [Compound 15, 2,6-Dimethyl-N-(4-(pentafluoro-λ^6-sulfanyl)benzyl)imidazo[1,2-a]pyridine-3-carboxamide]
- pIC50 (HepG2 cells; [8]): < 4.60
- pIC50 (HepG2 cells; [9]): < 4.60
- MIC [1]: < 0.01 µM
- MIC [2]: < 0.1 µM

Structure (SMILES): Cc1ccc2nc(C)c(C(=O)NCc3cccc(S(F)(F)(F)(F)F)c3)n2c1 [Compound 16, 2,6-Dimethyl-N-(3-(pentafluoro-λ^6-sulfanyl)benzyl)imidazo[1,2-a]pyridine-3-carboxamide]
- pIC50 (HepG2 cells; [8]): < 4.60
- pIC50 (HepG2 cells; [9]): < 4.60
- MIC [2]: < 0.1 µM

Structure (SMILES): CCc1nc2ccc(Cl)cn2c1C(=O)NCc1ccc(S(F)(F)(F)(F)F)cc1 [Compound 17, 6-Chloro-2-ethyl-N-(4-(pentafluoro-λ^6-sulfanyl)benzyl)imidazo[1,2-a]pyridine-3-carboxamide]
- pIC50 (HepG2 cells; [8]): < 4.60
- pIC50 (HepG2 cells; [9]): < 4.60
- MIC [1]: < 0.01 µM
- therapeutic window [3]: > 100

Structure (SMILES): CCc1nc2ccc(Cl)cn2c1C(=O)NCc1cccc(S(F)(F)(F)(F)F)c1 [Compound 18, 6-Chloro-2-ethyl-N-(3-(pentafluoro-λ^6-sulfanyl)benzyl)imidazo[1,2-a]pyridine-3-carboxamide]
- pIC50 (CYP2C8): 4.84
- fraction unbound (in vitro [4]): 0.001
- pIC50 (HepG2 cells; [8]): < 4.60
- pIC50 (HepG2 cells; [9]): < 4.60
- Papp A→B at 1 h (in vitro [5]): 1.09 ×10⁻⁶ cm/s
- Papp A→B at 2 h (in vitro [5]): 1.99 ×10⁻⁶ cm/s
- Papp B→A at 1 h (in vitro [5]): 3.65 ×10⁻⁶ cm/s
- Papp B→A at 2 h (in vitro [5]): 5.61 ×10⁻⁶ cm/s
- efflux ratio (in vitro [5]): 3.2
- pIC50 (CYP2D6): 5.19
- microsomal CLint (in vitro [6]): 89.7 µL/min/mg
- half-life (in vitro [6]): 25.8 min
- pIC50 (CYP2B6): 5.08
- Caco-2 Efflux Ratio (average) (Caco-2 cell monolayer): 3.16
- pIC50 (CYP3A4): 5.08 and < 4.70
- pIC50 (CYP2C9): 4.98
- pIC50 (CYP2C19): 4.97

Structure (SMILES): Cc1cn2c(C(=O)NCc3ccc(S(F)(F)(F)(F)F)cc3)c(C)nc2s1 [Compound 19, 2,6-Dimethyl-N-(4-(pentafluoro-λ^6-sulfanyl)benzyl)imidazo[2,1-b]thiazole-5-carboxamide]
- pIC50 (CYP2C8): < 4.70
- fraction unbound (in vitro [4]): 0.003
- pIC50 (HepG2 cells; [8]): < 4.60
- pIC50 (HepG2 cells; [9]): < 4.60
- Human liver S9 Microsomes T ½: 13.3 min
- Papp A→B at 1 h (in vitro [5]): 6.35 ×10⁻⁶ cm/s
- Papp A→B at 2 h (in vitro [5]): 12.1 ×10⁻⁶ cm/s
- Papp B→A at 1 h (in vitro [5]): 8.35 ×10⁻⁶ cm/s
- Papp B→A at 2 h (in vitro [5]): 8.1 ×10⁻⁶ cm/s
- efflux ratio (in vitro [5]): < 1
- MIC (Mycobacterium avium): 200 µM (≈ 82.3 µg/mL)
- pIC50 (CYP2D6): 4.87
- microsomal CLint (in vitro [6]): 175 µL/min/mg
- half-life (in vitro [6]): 13.5 min
- pIC50 (CYP2B6): < 4.70
- Caco-2 Efflux Ratio (average) (Caco-2 cell monolayer): 0.988
- pIC50 (CYP3A4): < 4.70
- MIC [2]: < 0.1 µM
- pIC50 (CYP2C9): 4.85
- pIC50 (CYP2C19): 4.87

Structure (SMILES): Cc1cn2c(C(=O)NCc3cccc(S(F)(F)(F)(F)F)c3)c(C)nc2s1 [Compound 20, 2,6-Dimethyl-N-(3-(pentafluoro-λ^6-sulfanyl)benzyl)imidazo[2,1-b]thiazole-5-carboxamide]
- pIC50 (HepG2 cells; [8]): 4.85
- pIC50 (HepG2 cells; [9]): < 4.60
- pIC50 (HepG2 cells; read-out: IC50 HepG2 Gal, galactose medium): 4.85

Structure (SMILES): NNC(=O)c1ccncc1 [INH, Isoniazid, reference compound]
- MIC [1]: 0.37 µM (≈ 0.0507 µg/mL)

Structure (SMILES): CC(=O)NC[C@H]1CN(c2ccc(N3CCOCC3)c(F)c2)C(=O)O1 [LIN, linezolid, reference compound]
- pIC50 (HepG2 cells; [8]): < 4.60
- pIC50 (HepG2 cells; [9]): < 4.60

Structure (SMILES): CC/C(=C(/CC)c1ccc(O)cc1)c1ccc(O)cc1 [diethylstilbestrol]
- Aq. sol [7]: 125 µM
